Test results reported in US20220088016A1, “CANCER TREATMENT USING MULTI-TARGETED KINASE INHIBITOR IN COMBINATION OF PROTEIN KINASE BIOMARKERS” (ZHEJIANG CROWNMAB BIOTECH CO. LTD., priority 2019, published 2022).

Assays:
Experiment in all cases: Kinase profiling
Format in all cases: binding
Details in all cases: read-out: % Ctrl @ 1000 nM
WNK4 = WNK4 (Homo sapiens, UniProt Q96J92)
EGFR (S752-I759del) = EGFR (S752-I759del) (Homo sapiens, UniProt P00533, DEL752-759)
BTK = BTK (Homo sapiens, UniProt Q06187)
IKK-beta = IKK-beta (Homo sapiens, UniProt O14920)
BLK = BLK (Homo sapiens, UniProt P51451)
MEK5 = target: T1, MEK5 (Homo sapiens, UniProt Q13163)
T1 construct: T7 phage fusion (stated for most kinases of the panel only); made in house; host or cells: T7 phage in E. coli (BL21-derived) or HEK-293 cells

AURKA = AURKA (Homo sapiens, UniProt O14965)
[1] = target: ABL1 (F317I)-nonphosphorylated (Homo sapiens, UniProt P00519, F317I)
PRP4 = PRP4 (Homo sapiens, UniProt Q13523)
IRAK3 = IRAK3 (Homo sapiens, UniProt Q9Y616)
PYK2 = PYK2 (Homo sapiens, UniProt Q14289)
JNK2 = JNK2 (Homo sapiens, UniProt P45984)
BRSK2 = BRSK2 (Homo sapiens, UniProt Q8IWQ3)
CAMK1B = CAMK1B (Homo sapiens, UniProt Q6P2M8)
PKMYT1 = PKMYT1 (Homo sapiens, UniProt Q99640)
HIPK3 = HIPK3 (Homo sapiens, UniProt Q9H422)
KIT (V559D) = KIT (V559D) (Homo sapiens, UniProt P10721, V559D)
HIPK1 = HIPK1 (Homo sapiens, UniProt Q86Z02)
PRKX = PRKX (Homo sapiens, UniProt P51817)
MLK2 = target: T2, MLK2 (Homo sapiens, UniProt Q02779)
T2 construct: T7 phage fusion (stated for most kinases of the panel only); made in house; host or cells: T7 phage in E. coli (BL21-derived) or HEK-293 cells

[2] = target: RPS6KA5 (Kin.Dom.1-N-terminal) (Homo sapiens, UniProt O75582)
GAK = GAK (Homo sapiens, UniProt O14976)
NEK3 = target: T3, NEK3 (Homo sapiens, UniProt P51956)
T3 construct: T7 phage fusion (said for most assays); made in house

NEK4 = target: T4, NEK4 (Homo sapiens, UniProt P51957)
T4 construct: T7 phage fusion (said for most assays); made in house

[3] = target: RPS6KA4 (Kin.Dom.2-C-terminal) (Homo sapiens, UniProt O75676)
FLT4 = FLT4 (Homo sapiens, UniProt P35916)
AURKB = AURKB (Homo sapiens, UniProt Q96GD4)
PCTK3 = PCTK3 (Homo sapiens, UniProt Q07002)
p38-alpha = p38-alpha (Homo sapiens, UniProt Q16539)
EGFR (L861Q) = EGFR (L861Q) (Homo sapiens, UniProt P00533, L861Q)
MAP3K15 = MAP3K15 (Homo sapiens, UniProt Q6ZN16)
YANK2 = YANK2 (Homo sapiens, UniProt Q9NY57)
TSSK3 = TSSK3 (Homo sapiens, UniProt Q96PN8)
MINK = target: T5, MINK (Homo sapiens, UniProt Q8N4C8)
T5 construct: T7 phage fusion (stated for most kinases of the panel only); made in house; host or cells: T7 phage in E. coli (BL21-derived) or HEK-293 cells

BRSK1 = BRSK1 (Homo sapiens, UniProt Q8TDC3)
FRK = FRK (Homo sapiens, UniProt P42685)
FES = FES (Homo sapiens, UniProt P07332)
S6K1 = S6K1 (Homo sapiens, UniProt P23443)
ULK2 = ULK2 (Homo sapiens, UniProt Q8IYT8)

Chain of EGFR (S752-I759del) (P00533 with tags, fused parts or gaps DEL752-759): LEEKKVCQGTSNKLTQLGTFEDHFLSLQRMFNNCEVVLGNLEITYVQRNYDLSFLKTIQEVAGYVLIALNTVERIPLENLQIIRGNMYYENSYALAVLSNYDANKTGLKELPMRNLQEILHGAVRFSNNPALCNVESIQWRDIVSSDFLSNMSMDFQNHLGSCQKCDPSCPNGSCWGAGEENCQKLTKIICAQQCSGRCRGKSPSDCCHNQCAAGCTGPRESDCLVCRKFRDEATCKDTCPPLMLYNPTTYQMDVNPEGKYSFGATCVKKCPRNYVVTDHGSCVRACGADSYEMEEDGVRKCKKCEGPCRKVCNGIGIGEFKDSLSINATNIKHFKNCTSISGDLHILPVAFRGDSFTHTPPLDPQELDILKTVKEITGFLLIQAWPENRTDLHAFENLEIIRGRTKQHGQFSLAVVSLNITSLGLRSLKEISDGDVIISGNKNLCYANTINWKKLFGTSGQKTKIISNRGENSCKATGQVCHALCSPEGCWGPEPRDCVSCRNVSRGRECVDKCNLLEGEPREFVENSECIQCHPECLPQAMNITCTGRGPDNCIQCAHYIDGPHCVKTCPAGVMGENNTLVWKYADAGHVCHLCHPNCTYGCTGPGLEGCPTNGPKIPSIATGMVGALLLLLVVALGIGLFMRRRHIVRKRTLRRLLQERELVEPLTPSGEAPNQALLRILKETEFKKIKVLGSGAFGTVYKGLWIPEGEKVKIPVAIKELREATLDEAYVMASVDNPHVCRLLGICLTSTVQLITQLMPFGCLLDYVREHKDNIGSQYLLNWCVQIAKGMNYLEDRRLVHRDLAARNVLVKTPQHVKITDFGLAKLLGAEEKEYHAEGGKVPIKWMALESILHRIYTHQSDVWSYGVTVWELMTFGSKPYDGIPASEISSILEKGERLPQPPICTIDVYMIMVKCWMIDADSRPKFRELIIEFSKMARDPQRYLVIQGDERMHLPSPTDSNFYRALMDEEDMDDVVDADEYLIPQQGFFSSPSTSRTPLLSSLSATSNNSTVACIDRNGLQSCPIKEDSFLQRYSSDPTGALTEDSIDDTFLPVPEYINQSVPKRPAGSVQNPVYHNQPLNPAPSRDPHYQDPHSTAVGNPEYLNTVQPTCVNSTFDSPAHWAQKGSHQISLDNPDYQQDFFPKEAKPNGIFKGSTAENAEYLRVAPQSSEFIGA
Chain of MAP3K15 (Q6ZN16 whole entry): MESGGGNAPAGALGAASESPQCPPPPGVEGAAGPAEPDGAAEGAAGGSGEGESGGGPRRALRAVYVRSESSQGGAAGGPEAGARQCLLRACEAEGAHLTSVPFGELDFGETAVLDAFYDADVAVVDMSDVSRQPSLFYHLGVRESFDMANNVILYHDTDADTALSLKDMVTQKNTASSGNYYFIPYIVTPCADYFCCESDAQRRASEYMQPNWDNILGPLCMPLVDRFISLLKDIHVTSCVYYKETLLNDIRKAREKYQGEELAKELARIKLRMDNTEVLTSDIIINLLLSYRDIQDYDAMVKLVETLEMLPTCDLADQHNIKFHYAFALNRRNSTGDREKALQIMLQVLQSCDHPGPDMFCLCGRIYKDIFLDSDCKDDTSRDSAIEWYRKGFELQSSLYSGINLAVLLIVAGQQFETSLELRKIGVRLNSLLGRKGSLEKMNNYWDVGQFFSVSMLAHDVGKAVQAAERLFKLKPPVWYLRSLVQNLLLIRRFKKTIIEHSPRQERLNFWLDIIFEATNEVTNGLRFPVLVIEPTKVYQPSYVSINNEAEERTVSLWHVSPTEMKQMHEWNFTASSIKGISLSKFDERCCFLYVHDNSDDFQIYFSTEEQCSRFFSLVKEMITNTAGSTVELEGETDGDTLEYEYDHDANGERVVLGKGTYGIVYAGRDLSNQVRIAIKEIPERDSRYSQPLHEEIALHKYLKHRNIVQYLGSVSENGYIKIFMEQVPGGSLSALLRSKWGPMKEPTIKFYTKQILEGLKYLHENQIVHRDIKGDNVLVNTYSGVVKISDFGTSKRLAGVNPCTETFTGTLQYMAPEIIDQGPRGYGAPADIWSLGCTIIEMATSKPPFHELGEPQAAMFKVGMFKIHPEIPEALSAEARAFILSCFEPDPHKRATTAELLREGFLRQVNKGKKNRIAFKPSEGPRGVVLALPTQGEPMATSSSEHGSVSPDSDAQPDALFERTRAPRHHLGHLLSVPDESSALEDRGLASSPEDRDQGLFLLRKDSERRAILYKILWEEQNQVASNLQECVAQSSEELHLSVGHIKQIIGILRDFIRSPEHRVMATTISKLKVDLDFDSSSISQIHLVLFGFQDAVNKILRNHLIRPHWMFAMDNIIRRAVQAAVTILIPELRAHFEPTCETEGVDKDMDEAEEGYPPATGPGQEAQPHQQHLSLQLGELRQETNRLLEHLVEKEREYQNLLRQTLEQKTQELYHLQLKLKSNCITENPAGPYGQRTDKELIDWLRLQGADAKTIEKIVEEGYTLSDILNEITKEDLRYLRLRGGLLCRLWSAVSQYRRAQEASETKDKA
Chain of S6K1 (P23443 whole entry): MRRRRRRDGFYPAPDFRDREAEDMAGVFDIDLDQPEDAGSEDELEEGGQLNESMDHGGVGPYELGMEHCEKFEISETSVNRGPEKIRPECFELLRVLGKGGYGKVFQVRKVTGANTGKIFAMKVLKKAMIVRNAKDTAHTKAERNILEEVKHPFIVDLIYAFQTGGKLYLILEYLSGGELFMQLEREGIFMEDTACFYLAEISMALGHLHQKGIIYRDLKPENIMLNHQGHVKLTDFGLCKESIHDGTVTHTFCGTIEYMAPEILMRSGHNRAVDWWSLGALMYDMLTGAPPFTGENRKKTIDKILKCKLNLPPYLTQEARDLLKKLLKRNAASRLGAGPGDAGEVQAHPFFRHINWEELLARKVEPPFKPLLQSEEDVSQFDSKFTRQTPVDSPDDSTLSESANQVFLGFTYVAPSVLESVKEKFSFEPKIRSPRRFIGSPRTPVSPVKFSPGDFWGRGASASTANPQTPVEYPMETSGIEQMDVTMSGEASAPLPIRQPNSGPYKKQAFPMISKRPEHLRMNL
Chain of HIPK1 (Q86Z02 whole entry): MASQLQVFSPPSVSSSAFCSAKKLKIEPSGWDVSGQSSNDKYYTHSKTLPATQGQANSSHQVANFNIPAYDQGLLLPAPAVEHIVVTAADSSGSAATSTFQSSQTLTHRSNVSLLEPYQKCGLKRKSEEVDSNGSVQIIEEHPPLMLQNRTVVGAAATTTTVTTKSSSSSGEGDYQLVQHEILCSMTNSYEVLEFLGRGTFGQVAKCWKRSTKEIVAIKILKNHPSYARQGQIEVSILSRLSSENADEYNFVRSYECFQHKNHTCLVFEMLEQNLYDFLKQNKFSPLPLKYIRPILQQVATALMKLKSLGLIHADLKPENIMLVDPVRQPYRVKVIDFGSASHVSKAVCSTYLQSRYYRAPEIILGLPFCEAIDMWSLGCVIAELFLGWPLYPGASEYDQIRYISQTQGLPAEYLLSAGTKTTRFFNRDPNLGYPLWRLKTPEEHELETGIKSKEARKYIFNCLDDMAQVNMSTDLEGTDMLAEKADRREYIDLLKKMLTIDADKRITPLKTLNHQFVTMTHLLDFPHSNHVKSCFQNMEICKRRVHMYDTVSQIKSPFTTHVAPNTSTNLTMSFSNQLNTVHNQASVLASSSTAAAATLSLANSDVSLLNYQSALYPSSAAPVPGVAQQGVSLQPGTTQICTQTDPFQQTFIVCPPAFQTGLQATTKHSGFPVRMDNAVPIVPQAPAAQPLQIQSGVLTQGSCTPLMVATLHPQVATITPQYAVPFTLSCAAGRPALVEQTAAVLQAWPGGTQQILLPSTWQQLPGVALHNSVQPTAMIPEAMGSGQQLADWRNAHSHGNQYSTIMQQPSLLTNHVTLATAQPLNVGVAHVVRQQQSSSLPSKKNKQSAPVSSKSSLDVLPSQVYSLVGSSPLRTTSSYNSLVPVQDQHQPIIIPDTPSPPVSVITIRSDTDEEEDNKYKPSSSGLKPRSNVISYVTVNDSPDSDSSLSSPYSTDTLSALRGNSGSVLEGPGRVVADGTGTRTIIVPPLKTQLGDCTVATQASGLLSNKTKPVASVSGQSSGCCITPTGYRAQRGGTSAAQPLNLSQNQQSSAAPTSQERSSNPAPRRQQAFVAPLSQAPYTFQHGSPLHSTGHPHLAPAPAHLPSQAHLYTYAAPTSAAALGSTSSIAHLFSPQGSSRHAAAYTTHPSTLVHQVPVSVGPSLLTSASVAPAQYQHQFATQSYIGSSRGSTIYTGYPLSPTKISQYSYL
Chain of FRK (P42685 whole entry): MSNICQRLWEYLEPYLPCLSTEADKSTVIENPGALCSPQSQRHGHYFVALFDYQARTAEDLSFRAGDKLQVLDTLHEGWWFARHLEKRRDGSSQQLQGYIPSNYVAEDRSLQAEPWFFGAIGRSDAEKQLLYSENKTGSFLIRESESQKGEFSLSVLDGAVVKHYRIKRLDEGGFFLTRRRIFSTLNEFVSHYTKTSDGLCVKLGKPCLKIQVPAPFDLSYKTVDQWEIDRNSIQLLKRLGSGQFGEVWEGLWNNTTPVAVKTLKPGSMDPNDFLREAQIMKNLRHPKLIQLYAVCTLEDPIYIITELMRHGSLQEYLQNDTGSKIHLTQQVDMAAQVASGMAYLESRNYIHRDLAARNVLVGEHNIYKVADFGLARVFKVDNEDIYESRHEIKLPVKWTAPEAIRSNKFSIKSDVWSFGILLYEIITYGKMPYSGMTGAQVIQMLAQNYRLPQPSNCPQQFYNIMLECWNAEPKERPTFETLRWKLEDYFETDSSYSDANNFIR
Chain of AURKB (Q96GD4 whole entry): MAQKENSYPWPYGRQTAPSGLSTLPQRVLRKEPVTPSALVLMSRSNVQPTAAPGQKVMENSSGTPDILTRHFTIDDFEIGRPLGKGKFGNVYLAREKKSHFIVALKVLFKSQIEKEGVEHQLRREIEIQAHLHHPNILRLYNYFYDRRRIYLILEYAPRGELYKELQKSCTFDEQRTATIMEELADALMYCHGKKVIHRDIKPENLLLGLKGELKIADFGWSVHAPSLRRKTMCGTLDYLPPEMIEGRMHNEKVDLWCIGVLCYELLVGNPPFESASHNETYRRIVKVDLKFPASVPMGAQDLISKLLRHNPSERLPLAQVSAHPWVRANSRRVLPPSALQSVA

Cc1cc(Oc2cc(NC(=O)C3CC3)ncn2)ccc1NC(=O)Nc1ccc(Cl)c(C(F)(F)F)c1 [CBT-102]
remaining activity at 1 µM (WNK4): 89% | remaining activity at 1 µM (EGFR (S752-I759del)): 91% | remaining activity at 1 µM (BTK): 77% | remaining activity at 1 µM (IKK-beta): 92% | remaining activity at 1 µM (BLK): 48% | remaining activity at 1 µM (MEK5): 6.2% | remaining activity at 1 µM (AURKA): 86% | remaining activity at 1 µM [1]: 70% | remaining activity at 1 µM (PRP4): 95% | remaining activity at 1 µM (IRAK3): 100% | remaining activity at 1 µM (PYK2): 93% | remaining activity at 1 µM (JNK2): 31% | remaining activity at 1 µM (BRSK2): 100% | remaining activity at 1 µM (CAMK1B): 98% | remaining activity at 1 µM (PKMYT1): 97% | remaining activity at 1 µM (HIPK3): 78% | remaining activity at 1 µM (KIT (V559D)): 0% | remaining activity at 1 µM (HIPK1): 96% | remaining activity at 1 µM (PRKX): 93% | remaining activity at 1 µM (MLK2): 99% | remaining activity at 1 µM [2]: 100% | remaining activity at 1 µM (GAK): 100% | remaining activity at 1 µM (NEK3): 100% | remaining activity at 1 µM (NEK4): 93% | remaining activity at 1 µM [3]: 100% | remaining activity at 1 µM (FLT4): 0.05% | remaining activity at 1 µM (AURKB): 49% | remaining activity at 1 µM (PCTK3): 84% | remaining activity at 1 µM (p38-alpha): 0% | remaining activity at 1 µM (EGFR (L861Q)): 56% | remaining activity at 1 µM (MAP3K15): 99% | remaining activity at 1 µM (YANK2): 100% | remaining activity at 1 µM (TSSK3): 100% | remaining activity at 1 µM (MINK): 35% | remaining activity at 1 µM (BRSK1): 95% | remaining activity at 1 µM (FRK): 6.1% | remaining activity at 1 µM (FES): 68% | remaining activity at 1 µM (S6K1): 99% | remaining activity at 1 µM (ULK2): 98%
